# According to US8642788B2, “Activators of executioner procaspases 3, 6 and 7” (The Regents of the University of California, priority 2008, dated 2014):
# Key:
# procaspase-6 = target: T1, procaspase-6 (Homo sapiens, UniProt P55212); experiment: Executioner procaspase-6 activation assay (Ac-VEID-AFC fluorogenic substrate); assay type: biochemical; details: incubation with compound for 5 h at 37° C.; 100 nM procaspase
# T1 sequence (P55212 1-293): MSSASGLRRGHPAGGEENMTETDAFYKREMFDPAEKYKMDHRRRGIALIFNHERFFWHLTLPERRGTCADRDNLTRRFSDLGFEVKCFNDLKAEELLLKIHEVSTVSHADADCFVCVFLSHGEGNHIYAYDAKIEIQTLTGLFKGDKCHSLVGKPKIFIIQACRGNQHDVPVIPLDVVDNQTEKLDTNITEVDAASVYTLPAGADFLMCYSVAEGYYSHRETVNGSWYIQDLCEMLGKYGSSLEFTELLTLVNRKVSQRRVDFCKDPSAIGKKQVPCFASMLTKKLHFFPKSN
# Description: The executioner procaspase-3, -6 and -7 activation assay protocol involves incubating the target protein at the physiologically-relevant concentration of 100 nM with activating compounds (ranging from 100 nM to 100 uM) in a total volume of 50 μL consisting of a reaction buffer of 50 mM HEPES, pH 7.4, 50 mM KCl, 1 mM DTT and 0.01% Triton-X100 (to reduce false positive hits due to compound aggregation). The procaspase/small molecule incubations are then agitated at 37° C. and assayed at various time points by addition of the fluorogenic peptide substrate 7-Amino-4-trifluoromethylcoumarin-DEVD (Ac-DEVD-AFC) (procaspases-3, -7) or Ac-VEID-AFC (procaspase-6) to a final concentration of 25 μM and analyzed by a kinetic 30 minute assay (excitation 365 nm and emission 495 nm). The final concentration of DMSO in each well is 3% and has no effect on enzyme stability or activity. […] All components of the assay including protein, substrate and inhibitor are stored as frozen aliquots and thawed immediately prior to the assay.
# Tables 1 and 2. Procaspase activation as a result of incubation with compound for 5 h at 37° C. (+++ EC50˜0.5-10 μM; ++ EC50˜10-50 μM; + EC50˜50-200 μM; -no activation observed; ND not determined).
# procaspase-3 = target: T2, procaspase-3 (Homo sapiens, UniProt P42574); experiment: Executioner procaspase-3 activation assay (Ac-DEVD-AFC fluorogenic substrate); assay type: biochemical; details: incubation with compound for 5 h at 37° C.; 100 nM procaspase; read-out: Procaspase Activation 3
# T2 construct: His6 (C); made in house; host or cells: E. coli BL21(DE3)RP, pET-23b
# T2 sequence (P42574 1-277): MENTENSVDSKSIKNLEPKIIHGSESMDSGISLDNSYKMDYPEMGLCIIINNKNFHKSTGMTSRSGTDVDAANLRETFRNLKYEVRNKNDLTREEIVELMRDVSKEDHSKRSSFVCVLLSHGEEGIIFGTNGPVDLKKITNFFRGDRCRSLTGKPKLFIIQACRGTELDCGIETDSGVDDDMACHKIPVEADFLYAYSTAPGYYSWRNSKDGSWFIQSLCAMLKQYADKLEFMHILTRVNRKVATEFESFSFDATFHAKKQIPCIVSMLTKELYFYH
# Description: The executioner procaspase-3, -6 and -7 activation assay protocol involves incubating the target protein at the physiologically-relevant concentration of 100 nM with activating compounds (ranging from 100 nM to 100 uM) in a total volume of 50 μL consisting of a reaction buffer of 50 mM HEPES, pH 7.4, 50 mM KCl, 1 mM DTT and 0.01% Triton-X100 (to reduce false positive hits due to compound aggregation). […] All components of the assay including protein, substrate and inhibitor are stored as frozen aliquots and thawed immediately prior to the assay.
SMILES,EC50 (procaspase-6) [µM],EC50 (procaspase-3) [µM]
"COc1ccc2oc(=O)c(C(=O)Nc3cccc(-c4cn5ccccc5n4)c3)cc2c1 [compound 6, 6-Methoxy-2-oxo-2H-chromene-3-carboxylic acid (3-imidazo[1,2-a]pyridin-2-yl-phenyl)-amide]",> 100,> 100
"O=C(Nc1cccc(-c2cn3ccccc3n2)c1)c1cc2cc(O)ccc2oc1=O [compound 11, 6-Hydroxy-2-oxo-2H-chromene-3-carboxylic acid (3-imidazo[1,2-a]pyridin-2-yl-phenyl)-amide]",> 100,> 100
"O=C(Nc1cccc(-c2cn3ccccc3n2)c1)c1cc2cc(O)c(O)cc2oc1=O [compound 7, 6,7-Dihydroxy-2-oxo-2H-chromene-3-carboxylic acid (3-imidazo[1,2-a]pyridin-2-yl-phenyl)-amide]",> 100,> 100
"O=C(Nc1cccc(-c2cn3ccccc3n2)c1)C1=Cc2cc(Cl)ccc2OC1 [compound 180, 6-Chloro-2H-chromene-3-carboxylic acid (3-imidazo[1,2-a]pyridin-2-yl-phenyl)-amide]",> 100,50 to 200
"O=C(Nc1cccc(-c2cn3ccccc3n2)c1)c1cc2cc(OC(F)(F)F)ccc2oc1=O [compound 9, 6-Trifluoromethoxy-2-oxo-2H-chromene-3-carboxylic acid (3-imidazo[1,2-a]pyridin-2-yl-phenyl)-amide]",> 100,> 100
"O=C(Nc1cccc(-c2cn3ccccc3n2)c1)c1cc2ccccc2oc1=O [compound 13, 2-oxo-2H-chromene-3-carboxylic acid (3-imidazo[1,2-a]pyridin-2-yl-phenyl)-amide]",,> 100

# The remaining lines, values ahead:
EC50 (procaspase-6) [µM],EC50 (procaspase-3) [µM],SMILES
10 to 50,10 to 50,"COc1cccc2cc(C(=O)Nc3cccc(-c4cn5ccccc5n4)c3)oc12 [compound 179, 7-Methoxy-benzofuran-2-carboxylic acid (3-imidazo[1,2-a]pyridin-2-yl-phenyl)-amide]"
0.5 to 10,0.5 to 10,"O=C(Nc1cccc(-c2cn3ccccc3n2)c1)c1cc2cccc(F)c2oc1=O [compound 2, 8-Fluoro-2-oxo-2H-chromene-3-carboxylic acid (3-imidazo[1,2-a]pyridin-2-yl-phenyl)-amide]"
> 100,> 100,"CCOc1cccc2cc(C(=O)Nc3cccc(-c4cn5ccccc5n4)c3)c(=O)oc12 [compound 5, 8-Ethoxy-2-oxo-2H-chromene-3-carboxylic acid (3-imidazo[1,2-a]pyridin-2-yl-phenyl)-amide]"
> 100,> 100,"COc1cccc2cc(C(=O)Nc3cccc(N4CCOCC4)c3)c(=O)oc12 [1541I, 8-Methoxy-2-oxo-2H-chromene-3-carboxylic acid (3-morpholin-4-yl-phenyl)-amide]"
> 100,0.5 to 10,"O=C(Nc1cccc(-c2cn3ccccc3n2)c1)c1cc2cccc(O)c2oc1=O [1541A, 8-Hydroxy-2-oxo-2H-chromene-3-carboxylic acid (3-imidazo[1,2-a]pyridin-2-yl-phenyl)-amide]"
0.5 to 10,,"COc1cccc2cc(C(=O)Nc3cccc(-c4cn5ccccc5n4)c3)c(=O)oc12 [compound 1541, 8-Methoxy-2-oxo-2H-chromene-3-carboxylic acid (3-imidazo[1,2-a]pyridin-2-yl-phenyl)-amide]"
,0.5 to 10,"COc1cccc2cc(C(=O)Nc3ccc(-c4nc5ccccc5[nH]4)cc3)c(=O)oc12 [compound 183, 8-Methoxy-2-oxo-2H-chromene-3-carboxylic acid [4-(1H-benzoimidazol-2-yl)-phenyl]-amide]"
,> 100,"COc1ccc2cc(C(=O)Nc3cccc(-c4cn5ccccc5n4)c3)c(=O)oc2c1OC [compound 8, 7,8-Dimethoxy-2-oxo-2H-chromene-3-carboxylic acid (3-imidazo[1,2-a]pyridin-2-yl-phenyl)-amide]"
